The values below come from US20180010188A1, “METHOD FOR DETECTING NONSENSE-MEDIATED RNA DECAY” (The Regents of the University of California, priority 2016, published 2018).

This test concerns core NMD factors. Put plainly: Expression of core NMD factors after thapsigargin. The format is cell-based, mouse. Conditions: 5 hours after thapsigargin treatment (data not shown). From the text: Thapsigargin is a non-competitive inhibitor of the sarco/endoplasmic reticulum Ca^2+ ATPase (SERCA) (Wictome et al., 1992. Biochem J 283 (Pt 2): 525-529; Lytton et al., 1991. J Biol Chem 266: 17067-17071). Thapsigargin treatment increases intracellular Ca^2+ concentration, which stimulates various Ca^2+ dependent signaling pathways. In fact, Nickless et al. recently reported that intracellular calcium inhibited NMD after administration of thapsigargin (Nickless et al. 2014. Nat Med 20: 961-966). Thapsigargin also induces ER stress. […] The diverging mechanisms reported by these studies were both based on the traditional NMD reporter approach and gene-centric validation. We therefore investigated which of the proposed mechanisms our independent method would support.

For `C/C=C(/C)C(=O)O[C@H]1C(C)=C2[C@H]([C@@H]1OC(=O)CCCCCCC)[C@@](C)(OC(C)=O)C[C@H](OC(=O)CCC)[C@@]1(O)[C@H]2OC(=O)[C@@]1(C)O` [thapsigargin], the “expression of core NMD factors” value is recorded as “no changes in their expression”.
